In patent US5354747A, “2-, 3-, 4-, 5-, 6-, 7-, 8-, 9- and/or 10-substituted dibenzoxazepine and dibenzthiazepine compounds, pharmaceutical compositions and methods of use” (G. D. Searle & Co., priority 1993, dated 1994):
Counter-ions that a name gives are not always drawn.

How the values were obtained:
[1] = test system: Charles River male albino mice; assay: Writhing Assay (PBQ-induced writhing, analgesic activity); assay type: in vivo; conditions: Intragastric; for responders at 30 mg/kg / ED50: Mus musculus, po; for responders at 30 mg/kg: 25 min, read-out: number of mice out of nine or ten in which a test compound produced analgesia (converted); for ED50: PBQ writhing, mice, maximum likelihood function, read-out: calculated ED50 value (dose which produced analgesia in 50% of the mice)
Description: The Writhing Assay is one of the most widely-used experimental procedures for measuring the analgesic activity of different narcotic and nonnarcotic analgesic agents, and involves the continuous, chemically-induced pain of visceral origin to an animal, such as a mouse or rat. [Gyires et al., Arch. int. Pharmacodyn, 267, 131-140 (1984); […] al., Fed. Proc., 15, 494 (1956); Koster et al., Fed. Proc., 18, 412 (1959); and Witken et al., J. Pharmacol. exp. Ther., 133, 400-408 (1961).] Chemicals which may be used to induce this pain include phenylbenzoquinone (PBQ) and acetic acid. As a result of the chemical irritation to the animal, a characteristic stretching and writhing of the animal (dorsiflexion of the animal's back, extension of its hindlimbs and the strong contraction of its abdominal musculature) will generally occur. […] Drugs which reduce the number of writhes of the animal appear to restore the normal nociceptive threshold of the animal. Charles River male albino mice, weighing 20 to 30 grams were used in this assay. Twenty-five minutes after intragastric administration to nine or ten mice of 30 mg per kilogram of body weight of a compound of the present invention ("test compound"), […] of body weight of a 0.025% w/v solution of PBQ was injected intraperitoneally into each mouse. Ten mice which were given saline in place of a test compound of the invention were used as a control group. Five minutes later, each mouse was individually placed into a glass beaker for observation, and the number of writhes occurring during the following ten-minute period was counted. A test compound was considered to have produced analgesia in a mouse if, in accordance with the conditions set forth above, and under the test criteria employed for this assay, after the administration of 30 mg per kilogram of body weight of a compound of the present invention to the mouse, the number of writhes elicited by a mouse injected with PBQ was equal to, or less than, one-half the median number of writhes recorded for the saline-treated control group of mice that day, as described by Taber in "Predictive Value of Analgesic Assays in Mice and Rats," Advances in Biochemical Psychopharmacology, 8, 191 (1974). […] If this initial screening dose of the test compound produced analgesia in seven of nine or ten mice, then the effect of additional doses of the test compound on the writhing response was evaluated, and then the ED50 value (that dose of a compound which produced analgesia in 50% of the mice to which the compound was administered) was generally calculated. A maximum likelihood function was used to determine the ED50 value. (The slopes of the dose-response curves for all test compounds analyzed were compared as described by Tallarida and Murray, Manual of Pharmacologic Calculations, Page 11 (Springer Verlag, New York, 1981)). The results for the particular compounds of the present invention analyzed in this assay, and discussed in the examples identified below which correspond thereto, are presented in Table 1 hereinbelow. The compounds of the present invention which were tested in this assay, and for which results are presented in Table 1, correspond to the particular examples specified in Table 1. The fractions indicate the number of mice out of nine or ten in which a test compound produced analgesia, and the whole numbers are the calculated ED50 values.

[2] = test system: prostaglandin E2 -induced contractions of segments of guinea pig ileum; assay: Prostaglandin (PGE) Antagonism Assay; assay type: cell-based; conditions: dose ratio of prostaglandin E2 EC50 doses with/without test compound, initial concentration 3 micromolar
Method: In order to determine the effectiveness of several of the compounds of the present invention ("test compounds") as prostaglandin E2 antagonists,a prostaglandin antagonism assay was conducted, as described below, to determine the ability of these compounds to inhibit prostaglandin E2 -induced contractions of segments of guinea pig ileum. […] Male albino guinea pigs weighing 200 to 500 grams were sacrificed by cervical dislocation. The ilea were then quickly removed from the guinea pigs and placed in a modified Tyrode solution, a solution which is known to those skilled in the art, containing one-half of the usual amount of magnesium ions. Segments of ileum about 2 cm long were then cut and mounted in a 10-mL tissue bath containing the modified Tyrode solution. The solution was maintained at 37° C. and aerated with a gaseous mixture of 95% oxygen and 5% carbon dioxide. Data for a control prostaglandin E2 dose response curve plotting concentration of prostaglandin E2 versus the intensity of contractions, detected isotonically, was then obtained by experimentally adjusting the dose of the prostaglandin E2 being injected into the tissue bath, in a manner known by those of skill in the art. Solutions or suspensions containing an initial concentration (3 micromolar) of a test compound in modified Tyrode solution ("test solutions/suspensions") were then separately substituted for the control bath solution. Each test solution/suspension was then kept in constant contact with the ileum tissue, except for brief periods to drain the bath in preparation for rinsing with fresh test solution/suspension. A second prostaglandin E2 dose response curve was then generated for prostaglandin E2 in the presence of a test compound. A dose ratio (DR) of EC50 doses was then calculated from the results of each test in a manner known by those of skill in the art. A control dose response curve (DRC) is produced in isolated segments of guinea pig ileum mounted in an automated apparatus with six concentrations of prostaglandin E2. A solution or suspension of test compound is substituted for the control bathing solution and is incubated for thirty minutes. An additional prostaglandin E2 dose response curve is produced in the presence of the test compound. A dose ratio is calculated from the EC50 values obtained from duplicate replications on each concentration of the test compound. […] The results of this prostaglandin antagonism assay are presented in Table 2 below in terms of their dose ratio. The compounds of the present invention which were tested in this assay, and for which results are presented in Table 2, correspond to the particular examples specified in Table 2.

[3] = 30 mg per kilogram of body weight 25 min before PBQ i.p., writhes equal to or less than one-half the control median

Molecule | number of mice out of nine or ten in which a test compound produced analgesia [1, 3] | responders at 30 mg/kg [1, 3] [%] | Dose Ratio [2] | ED50 [1] [mg/kg]
8-chloro-10,11-dihydro-10-[[4-(2-pyridinyl)-1-piperazinyl]carbonyl]dibenz[b,f][1,4]oxazepine, monohydrochloride [Example 11] | 1/10 | – | – | –
O=C(C1CCN(C(=O)N2Cc3ccccc3Oc3ccc(Cl)cc32)CC1)N(CCO)CCO [Example 3, 1-[(8-chlorodibenz[b,f][1,4]oxazepin-10(11H)yl)carbonyl]-N,N-bis(2-hydroxyethyl)-4-piperidinecarboxamide] | – | 20 | 1.5 | –
O=C(N1CCN2CCCCC2C1)N1Cc2ccccc2Oc2ccc(Cl)cc21 (stereo not shown) [Example 5, 8-chloro-10,11-dihydro-10-[(octahydro-2H-pyrido[1,2,-a]pyrazin-2-yl)carbonyl]dibenz[b,f][1,4]oxazepine hydrochloride] | – | 40 | 2.4 | –
Cl.O=C(N1CCN(Cc2ccccc2)CC1)N1Cc2ccccc2Oc2ccc(Cl)cc21 [Example 7, 8-chloro-10,11-dihydro-10-[[4-(phenylmethyl)-1-piperazinyl]carbonyl]dibenz[b,f][1,4]oxazepine, monohydrochloride] | – | – | 5.1 | 6.8
CCCCN1CCN(C(=O)N2Cc3ccccc3Oc3ccc(Cl)cc32)CC1.Cl [Example 9, 10-[(4-butyl-1-piperazinyl)carbonyl]-8-chloro-10,11-dihydrodibenz[b,f][1,4]oxazepine, monohydrochloride] | – | – | 1.4 | 9.7
Cl.O=C(N1CCC(N2CCCCC2)CC1)N1Cc2ccccc2Oc2ccc(Cl)cc21 [Example 13, 10-([1,4'-bipiperidin]-1'-ylcarbonyl)-8-chloro-10,11-dihydrodibenz[b,f][1,4]oxazepine, hydrochloride] | – | 90 | 1.6 | –
CCCCCCCCCCN1CCN(C(=O)N2Cc3ccccc3Oc3ccc(Cl)cc32)CC1.Cl [Example 15, 8-chloro-10-[(4-decyl-1-piperazinyl)carbonyl]-10,11-dihydrodibenz[b,f][1,4]oxazepine, monohydrochloride] | – | – | 2.1 | 6.4
CCCN1CCN(C(=O)N2Cc3ccccc3Oc3ccc(Cl)cc32)CC1.Cl [Example 17, 8-chloro-10,11-dihydro-10-[(4-propyl-1-piperazinyl)carbonyl]dibenz[b,f][1,4]oxazepine, hydrochloride] | – | – | 3.1 | 5.1
CCN1CCN(C(=O)N2Cc3ccccc3Oc3ccc(Cl)cc32)CC1.Cl [Example 19, 8-chloro-10-[(4-ethyl-1-piperazinyl)carbonyl]-10,11-dihydrodibenz[b,f][1,4]oxazepine, hydrochloride] | – | 22.2 | 6.0 | –
CC(C)(C)OC(=O)N1CCN(C(=O)N2Cc3ccccc3Oc3ccc(Cl)cc32)CC1 [Example 20, 1,1-dimethylethyl 4-[(8-chlorodibenz[b,f][1,4]oxazepin-10(11H)-yl)carbonyl]-1-piperazinecarboxylate] | – | 40 | 8.0 | –
CC(C)N1CCN(C(=O)N2Cc3ccccc3Oc3ccc(Cl)cc32)CC1.Cl [Example 22, 8-chloro-10,11-dihydro-10-[[4-(1-methylethyl]-1-piperazinyl]carbonyl]dibenz[b,f][1,4]oxazepine, hydrochloride] | – | 30 | 3.0 | –
CCCN1CCCN(C(=O)N2Cc3ccccc3Oc3ccc(Cl)cc32)CC1 [Example 24, monohydrochloride] | – | – | 11.9 | 14.7
O=C(N1CCNCC1)N1Cc2ccccc2Oc2ccc(Cl)cc21 [Example 25, 8-chloro-10,11-dihydro-10-(1-piperazinylcarbonyl)dibenz[b,f][1,4]oxazepine, monohydrochloride] | – | 50 | 1.6 | –
Cl.O=C(c1ccncc1)N1CCN(C(=O)N2Cc3ccccc3Oc3ccc(Cl)cc32)CC1 [Example 29, 1-[(8-chlorodibenz[b,f][1,4]oxazepin-10(11H)-yl)carbonyl]-4-(4-pyridinylcarbonyl)piperazine, monohydrochloride] | – | 50 | 2.2 | –
O=C(N1CCC(N2CCCC2)CC1)N1Cc2ccccc2Oc2ccc(Cl)cc21 [Example 34, 8-chloro-10,11-dihydro-10-[[4-(1-pyrrolidinyl)-1-piperidinyl]carbonyl]dibenz[b,f][1,4]oxazepine] | – | 70 | – | –
Cl.O=C(N1CCC(N2CCCC2)CC1)N1Cc2ccccc2Oc2ccc(Cl)cc21 [Example 35, 8-chloro-10,11-dihydro-10-[[4-(1-pyrrolidinyl)-1-piperidinyl]carbonyl]dibenz[b,f][1,4]oxazepine, hydrochloride] | – | – | 1.0 | –
O=C(c1ccco1)N1CCN(C(=O)N2Cc3ccccc3Oc3ccc(Cl)cc32)CC1 [Example 38, 1-[(8-chlorodibenz[b,f][1,4]oxazepin-10(11H)-yl)carbonyl]-4-(2-furanylcarbonyl)piperazine] | – | 10 | – | –
O=C(N1Cc2ccccc2Oc2ccc(Cl)cc21)N1CCCCC1CCN1CCCC1 (stereo not shown) [Example 49, 8-chloro-10,11-dihydro-10-[[2-[2-(1-pyrrolidinyl)ethyl]-1-piperidinyl]carbonyl]dibenz[b,f][1,4]oxazepine, hydrochloride] | – | 20 | – | –
CCOC(=O)C1CN(C(=O)N2Cc3ccccc3Oc3ccc(Cl)cc32)CCN1c1ccccc1 (stereo not shown) [Example 50, ethyl 4-[(8-chlorodibenz[b,f][1,4]oxazepin-10(11H)-yl)carbonyl]-1-phenyl-2-piperazinecarboxylate] | – | – | 2.7 | –
O=C(Cc1ccncc1)N1CCN(C(=O)N2Cc3ccccc3Oc3ccc(Cl)cc32)CC1 [Example 79, 1-[(8-Chlorodibenz[b,f][1,4]oxozepin-10(11H)-yl)carbonyl]-4-[1-oxo-2(4-pyridinyl)-ethyl]piperazine, monohydrochloride, monohydrate] | – | – | 10 | –
Cl.O=C(Cc1ccncc1)N1CCCN(C(=O)N2Cc3ccccc3Oc3ccc(Cl)cc32)CC1 [Example 81, 1-[(8-chlorodibenz[b,f][1,4]oxazepin-10(11H)-yl)carbonyl]hexahydro-4-(4-pyridinylacetyl)-1H-1,4-diazepine, monohydrochloride] | – | – | 32 | –
